# Results: patent US12440496B2, “Natriuretic peptide receptor a agonists useful for the treatment of cardiometabolic diseases, kidney disease and diabetes” (Merck Sharp & Dohme LLC, priority 2019, dated 2025)
# Where a name gives a salt, the structure may show the parent alone.
# Biological target: T1, hNPRA (Homo sapiens, UniProt P16066)
# T1 construct: expressed in transfected cells
# T1 sequence (P16066 33-1061): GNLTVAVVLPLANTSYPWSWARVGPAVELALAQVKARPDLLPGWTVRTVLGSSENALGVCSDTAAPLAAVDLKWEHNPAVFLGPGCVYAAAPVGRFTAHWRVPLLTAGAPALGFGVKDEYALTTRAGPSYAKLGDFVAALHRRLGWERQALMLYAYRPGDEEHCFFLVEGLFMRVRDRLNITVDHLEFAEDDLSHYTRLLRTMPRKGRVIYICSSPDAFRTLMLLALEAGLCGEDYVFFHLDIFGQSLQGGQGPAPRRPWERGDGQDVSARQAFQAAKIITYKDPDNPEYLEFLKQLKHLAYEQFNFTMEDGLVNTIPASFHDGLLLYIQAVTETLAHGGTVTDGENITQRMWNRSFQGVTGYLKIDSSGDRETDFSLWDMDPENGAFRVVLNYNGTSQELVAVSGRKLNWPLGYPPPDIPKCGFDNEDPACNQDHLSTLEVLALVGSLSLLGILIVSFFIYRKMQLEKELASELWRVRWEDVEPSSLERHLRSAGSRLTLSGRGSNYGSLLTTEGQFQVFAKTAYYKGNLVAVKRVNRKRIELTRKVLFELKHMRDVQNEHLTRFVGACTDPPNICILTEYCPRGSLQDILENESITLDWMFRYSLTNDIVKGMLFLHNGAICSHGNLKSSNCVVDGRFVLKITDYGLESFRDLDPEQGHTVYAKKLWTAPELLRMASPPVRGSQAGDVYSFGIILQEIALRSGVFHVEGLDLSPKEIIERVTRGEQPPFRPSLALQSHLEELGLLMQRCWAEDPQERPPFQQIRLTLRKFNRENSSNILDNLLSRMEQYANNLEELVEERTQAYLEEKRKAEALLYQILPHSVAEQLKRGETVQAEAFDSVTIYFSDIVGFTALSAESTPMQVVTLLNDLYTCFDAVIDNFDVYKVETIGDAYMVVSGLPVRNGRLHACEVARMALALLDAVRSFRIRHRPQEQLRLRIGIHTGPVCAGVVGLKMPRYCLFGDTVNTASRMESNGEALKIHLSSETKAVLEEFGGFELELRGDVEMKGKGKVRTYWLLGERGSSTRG
# Experiment: NPRA Functional Cell Assay (cGMP HTRF, NPRA HEK JumpIn stable cells)
# Type: cell-based
# Settings: cGMP production, 1 hour at 37° C., 10-point dose response
# Source text: NPRA Functional Cell Assay
# Assay Buffer components HEPES and Opti-MEM® I Reduced-Serum with Glutamine (no phenol red) were from Gibco/Invitrogen (Thermo Fisher Scientific, Waltham, MA USA). 3-Isobutyl-1-methylxanthine (IBMX) and 4-(3-Butoxy-4-methoxybenzyl) imidazolidin-2-one (RO20) were obtained from Sigma-Aldrich (St. Louis, MO, USA). DPBS (Dulbecco's phosphate-buffered saline) without Ca2+ and Mg2+ was purchased from GE Healthcare Bio-Sciences (Pittsburgh, PA, USA). 384 well white Optiplates were from Perkin Elmer (Atlantic Highlands, NJ, USA). Human ANP (Atrial Natriuretic Peptide) (1-28) was purchased from Sigma-Aldrich (Catalog #A1663) and rat ANP (1-28) from Bachem (Torrance, CA, USA) (Catalog #H2100). Human-BNP (Human-Brain Natriuretic Peptide) (1-32 AA) was purchased from American Peptide Company (Sunnyvale, CA, USA) (product No. 14-1-90). cGMP kits were purchased from Cisbio. The assay ready frozen (ARF) Human/rat/dog NPRA HEK JumpIn Stable frozen cells (low passage number 5-11) were prepared in-house.
# Test compounds were titrated in DMSO in a 10-point dose response in a separate step followed by a 100-fold dilution into the reaction. Positive response for each assay was determined using 10 nM rat-ANP peptide (rat cells) or 50 nM h-ANP peptide (human and dog cells).
# Cells were thawed, washed with DPBS and resuspended in assay buffer (Opti-MEM+Glutamine, phenol red free media, 10 mM HEPES, 100 uM IBMX and 100 uM RO20) that was warmed to 37° C. Cells were then transferred to microplates via a Microplate Combi dispenser at a density of 1500, 400 and 1200 cells/well for human, rat and dog cells respectively, followed by acoustic transfer (Echo) of compound.
# (§1) Compounds and cells were incubated at 37° C. with 5% CO2 for 1 hour, after which the cells were lysed and cGMP was captured using a CisBio cGMP HTRF assay kit. The TRF signal was measured with an Envision plate reader (emission set to 615 and 665 nm) after 1 hour incubation at ambient temperature. The TRF signal was converted to [cGMP] through the use of a cGMP calibration curve on each microplate. EC50's were generated from the resulting dose response curves by use of a 4 parameter logistic algorithm.
# Assay Buffer components HEPES and Opti-MEM® I Reduced-Serum with Glutamine (no phenol red) were from Gibco/Invitrogen. 3-Isobutyl-1-methylxanthine (IBMX) and 4-(3-Butoxy-4-methoxybenzyl) imidazolidin-2-one (RO20) were obtained from Sigma. DPBS (Dulbecco's phosphate-buffered saline) without Ca2+ and Mg2+ was purchased from GE Healthcare Bio-Sciences (Pittsburgh, PA, USA). 384 well white Optiplates were from Perkin Elmer (Atlantic Highlands, NJ, USA). Human ANP (1-28) was purchased from Sigma (A1663) and rat ANP (1-28) from Bachem (H2100). Human-BNP (1-32 AA) was purchased from American Peptide Company (Sunnyvale, CA, USA) (product No. 14-1-90). cGMP kits were purchased from Cisbio (Bedford, MA, USA). The assay ready frozen (ARF) Human/rat/dog NPRA HEK JumpIn Stable frozen cells (low passage number 5-11) were prepared in-house.
# as §1, with “Envision®” for “Envision”, “reader (Perkin Elmer)” for “reader”
# hNPRA EC50 (nM) were determined for the compounds of Example 1 through Example 273 and are reported in the Experimental section of this application.
row,EC50,Compound
1,1970 nM,"CC(C)(C)[C@H]1CCc2nc3sc(C(=O)N[C@H](CCN[C@H]4CCCC(F)(F)[C@@H]4O)c4cccc(NS(C)(=O)=O)c4)cc3cc2C1 (racemic) [Example 24, ammonium; methylsulfony 1-[3-[rac-(1R)-1-[[rac-(6S)-6-tert-buty1-5,6,7,8-tetrahydrothieno[2,3-b]quinoline-2-carbonyl]amino]-3-[[rac-(1S,2R)-3,3-difluoro-2-hydroxy-cyclohexyl]amino]propyl]phenyl]azanide]"
2,218 nM,"CN(C)CC[C@@H](NC(=O)c1cc2cc3c(nc2s1)CC[C@H](C(C)(C)C)C3)c1ccc(-c2ccc(=O)[nH]c2)cc1 (racemic) [Example 25, dimethyl-[rac-(3R)-3-[4-(6-oxo-1H-pyridin-3-yl)phenyl]-3-[{rac-(6S)-6-tert-butyl-5,6,7,8-tetrahydrothieno[2,3-b]quinoline-2-carbonyl]amino]propyl] ammonium;formate]"
3,448 nM,"CC(C)(C)[C@H]1CCc2nc3sc(C(=O)N[C@H](CCN4CCC(n5cnnc5)CC4)c4ccc(-c5ccc(=O)[nH]c5)cc4)cc3cc2C1 (racemic) [Example 29, rac-(6S)-6-tert-butyl-N-[rac-(1R)-1-[4-(6-oxo-1H-pyridin-3-yl)phenyl]-3-[4-(1,2,4-triazol-4-yl)piperidin-1-ium-1-yl]propyl]-5,6,7,8-tetrahydrothieno[2,3-b]quinoline-2-carboxamide;formate]"
4,455 nM,"CC(C)(C)[C@H]1CCc2nc3sc(C(=O)N[C@H](CCN4CCCCC4CO)c4ccc(-c5ccc(=O)[nH]c5)cc4)cc3cc2C1 (mixture of isomers) [Example 30, rac-(6S)-6-tert-butyl-N-[rac-(1R)-3-[2-(hydroxymethyl)piperidin-1-ium-1-yl]-1-[4-(6-oxo-1H-pyridin-3-yl)phenyl]propyl]-5,6,7,8-tetrahydrothieno[2,3-b]quinoline-2-carboxamide;formate]"
5,473 nM,"CC(C)(C)[C@H]1CCc2nc3sc(C(=O)N[C@H](CCN4CCC[C@H](O)[C@H]4CO)c4ccc(-c5ccc(=O)[nH]c5)cc4)cc3cc2C1 (racemic) [Example 31, rac-(6S)-6-tert-butyl-N-[rac-(1R)-1-[4-(6-oxo-1H-pyridin-3-yl)phenyl]-3-[rac-(2R,3S)-3-hydroxy-2-(hydroxymethyl)piperidin-1-ium-1-yl]propyl]-5,6,7,8-tetrahydrothieno[2,3-b]quinoline-2-carboxamide; formate]"
6,535 nM,"CC(C)(C)[C@H]1CCc2nc3sc(C(=O)N[C@H](CCN4CCC(n5ncnn5)CC4)c4ccc(-c5ccc(=O)[nH]c5)cc4)cc3cc2C1 (racemic) [Example 35, rac-(6S)-6-tert-butyl-N-[rac-(1R)-1-[4-(6-oxo-1H-pyridin-3-yl)phenyl]-3-[4-(tetrazol-2-yl)piperidin-1-ium-1-yl]propyl]-5,6,7,8-tetrahydrothieno[2,3-b]quinoline-2-carboxamide;formate]"

# The remaining lines, values behind:
row,Compound,EC50
1,"CC(C)(C)[C@H]1CCc2nc3sc(C(=O)N[C@H](CCN4CCC(c5ccccn5)CC4)c4cccc(NS(C)(=O)=O)c4)cc3cc2C1 (racemic) [Example 23, ammonium;methylsulfonyl-[3-[rac-(1R)-3-[4-(2-pyridyl)-1-piperidyl]-1-[[rac-(6S)-6-tert-butyl-5,6,7,8-tetrahydrothieno[2,3-b]quinoline-2carbonyl]amino]propyl]phenyl]azanide]",1790 nM
2,"CC(C)(C)[C@H]1CCc2nc3sc(C(=O)N[C@H](CCN[C@H]4C[C@@H](CO)[C@H](O)[C@@H]4O)c4ccc(-c5ccc(=O)[nH]c5)cc4)cc3cc2C1 (racemic) [Example 26, [rac-(1S,2R,3S,4S)-2,3-dihydroxy-4-(hydroxymethyl)cyclopentyl]-[rac-(3R)-3-[4-(6-oxo-1H-pyridin-3-yl)phenyl]-3-[rac-(6S)-6-tert-butyl-5,6,7,8-tetrahydrothieno[2,3-b]quinoline-2-carbonyl]amino]propyl] ammonium;formate]",386 nM
3,"CC(C)(C)C1CCc2nc3sc(C(=O)NC(CCN4CC5C(CO)C5C4)c4ccc(-c5ccc(=O)[nH]c5)cc4)cc3cc2C1 (racemic) [Example 27, rac-(6S)-6-tert-butyl-N-[rac-(1R)-3-[6-(hydroxymethyl)-3-azoniabicyclo[3.1.0]hexan-3-yl]-1-[4-(6-oxo-1H-pyridin-3-yl)phenyl]propyl]-5,6,7,8-tetrahydrothieno[2,3-b]quinoline-2-carboxamide;formate]",408 nM
4,"CN(C)C1CCN(CCC(NC(=O)c2cc3cc4c(nc3s2)CCC(C(C)(C)C)C4)c2ccc(-c3ccc(=O)[nH]c3)cc2)CC1 (racemic) [Example 28, dimethyl-[1-[rac-(3R)-3-[4-(6-oxo-1H-pyridin-3-yl)phenyl]-3-[[rac-(6S)-6-tert-butyl-5,6,7,8-tetrahydrothieno[2,3-b]quinoline-2-carbonyl]amino]propyl]-4-piperidyl]ammonium;formate]",446 nM
5,"CC(C)(C)[C@H]1CCc2nc3sc(C(=O)N[C@H](CCN4CCCCC4)c4ccc(-c5ccc(O)nc5)cc4)cc3cc2C1 (racemic) [Example 32, rac-(6S)-6-tert-butyl-N-[rac-(1R)-1-[4-(6-oxo-1H-pyridin-3-yl)phenyl]-3-piperidin-1-ium-1-yl-propyl]-5,6,7,8-tetrahydrothieno[2,3-b]quinoline-2-carboxamide;formate]",478 nM
6,"CC(C)(C)[C@H]1CCc2nc3sc(C(=O)N[C@H](CCN4CCCC4)c4ccc(-c5ccc(=O)[nH]c5)cc4)cc3cc2C1 (racemic) [Example 33, rac-(6S)-6-tert-butyl-N-[rac-(1R)-1-[4-(6-oxo-1H-pyridin-3-yl)phenyl]-3-pyrrolidin-1-ium-1-yl-propyl]-5,6,7,8-tetrahydrothieno[2,3-b]quinoline-2-carboxamide;formate]",511 nM
7,"CC(C)(C)[C@H]1CCc2nc3sc(C(=O)N[C@H](CCN(CCO)CCO)c4ccc(-c5ccc(=O)[nH]c5)cc4)cc3cc2C1 (racemic) [Example 34, rac-(6S)-6-tert-butyl-N-[rac-(1R)-3-[bis(2-hydroxyethyl)amino]-1-[4-(6-oxo-1H-pyridin-3-yl)phenyl]propyl]-5,6,7,8-tetrahydrothieno[2,3-b]quinoline-2-carboxamide]",530 nM
